Experiments:
[1] = organism: Homo sapiens; assay: Selectivity index, ratio of Ki for human D2long receptor to Ki for human D3 receptor
[2] = target: D(2) dopamine receptor (Homo sapiens, UniProt P14416); assay: Displacement of [3H]-raclopride from human D2long receptor expressed in HEK293Galpha15 cells after 120 mins by scintillation counting analysis; assay type: cell-based
[3] = target: D(3) dopamine receptor (Homo sapiens, UniProt P35462); assay: Displacement of [3H]-raclopride from human D3 receptor expressed in CHO-K1 cells after 120 mins by scintillation counting analysis; assay type: cell-based
Sequence of D(3) dopamine receptor (P35462 whole entry): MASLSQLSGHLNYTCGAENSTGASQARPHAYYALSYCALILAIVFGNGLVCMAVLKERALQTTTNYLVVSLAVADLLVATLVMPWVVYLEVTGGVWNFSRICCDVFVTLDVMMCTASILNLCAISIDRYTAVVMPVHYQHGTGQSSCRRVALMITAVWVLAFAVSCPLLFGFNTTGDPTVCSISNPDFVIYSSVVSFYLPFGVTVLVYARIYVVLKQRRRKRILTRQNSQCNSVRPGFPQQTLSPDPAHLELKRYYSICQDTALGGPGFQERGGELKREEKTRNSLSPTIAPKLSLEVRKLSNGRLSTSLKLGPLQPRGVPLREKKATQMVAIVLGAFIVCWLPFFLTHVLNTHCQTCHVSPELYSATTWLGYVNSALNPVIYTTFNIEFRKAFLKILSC

Sequence of D(2) dopamine receptor (P14416 whole entry): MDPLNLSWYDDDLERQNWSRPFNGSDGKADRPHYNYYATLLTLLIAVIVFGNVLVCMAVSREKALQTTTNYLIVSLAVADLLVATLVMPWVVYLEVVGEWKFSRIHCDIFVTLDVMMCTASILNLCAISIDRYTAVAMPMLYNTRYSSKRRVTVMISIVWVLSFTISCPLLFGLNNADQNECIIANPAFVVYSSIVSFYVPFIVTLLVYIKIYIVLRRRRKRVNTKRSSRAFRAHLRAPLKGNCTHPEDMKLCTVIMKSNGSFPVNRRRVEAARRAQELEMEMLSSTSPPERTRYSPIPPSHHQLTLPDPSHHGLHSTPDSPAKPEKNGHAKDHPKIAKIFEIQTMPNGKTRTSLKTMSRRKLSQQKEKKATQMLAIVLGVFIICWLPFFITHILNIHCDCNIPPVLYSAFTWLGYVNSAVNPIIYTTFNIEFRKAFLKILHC

Ratio Ki [1]	Ki [2] [nM]	Ki [3] [nM]	SMILES
9	5.4	0.62	N#Cc1cc(N2CCN(CC[C@H]3CC[C@H](NC(=O)CN)CC3)CC2)cc(C(F)(F)F)c1
39	30	0.75	N#Cc1cc(N2CCN(CC[C@H]3CC[C@H](NC(N)=O)CC3)CC2)cc(C(F)(F)F)c1
55	37	0.67	N#Cc1cc(N2CCN(CC[C@H]3CC[C@H](NS(N)(=O)=O)CC3)CC2)cc(C(F)(F)F)c1
